Where a SMILES comes first, the peptide text is derived from it. Bridges are numbered along the chain shown (N, C = ends). [ ]: non-standard residue; d: D form. The star is where a group is joined. ξ: configuration not given here. Phe(4-COOH) = N[C@@H](Cc1ccc(C(=O)O)cc1)C(=O)O; Bip = N[C@@H](Cc1ccc(-c2ccccc2)cc1)C(=O)O; Phe(3-Cl) = N[C@@H](Cc1cccc(Cl)c1)C(=O)O; Phe(3-OMe) = COc1cccc(C[C@H](N)C(=O)O)c1; Phe(3-Me) = Cc1cccc(C[C@H](N)C(=O)O)c1; Val(3-OH) = CC(C)(O)[C@H](N)C(=O)O; 4Pal = N[C@@H](Cc1ccncc1)C(=O)O; Cha = N[C@@H](CC1CCCCC1)C(=O)O; Cit = NC(=O)NCCC[C@H](N)C(=O)O; Thr(3ξ) = CC(O)[C@H](N)C(=O)O; dOrn = NCCC[C@@H](N)C(=O)O; Carboxymethyl = O=C(O)C*; Orn = NCCC[C@H](N)C(=O)O; Dab = NCC[C@H](N)C(=O)O; Dap = NC[C@H](N)C(=O)O
Biological target: T1, human PD-1 / PD-L1-Ig binding on Jurkat cell line over-expressing human PD-1 (Jurkat-PD-1) (Homo sapiens, UniProt Q15116)
T1 construct: expressed in transfected cells; host or cells: Jurkat
Assay: Jurkat-PD-1 Cell Binding High-Content Screening Assay (CBA)
Type: cell-based
Details: Jurkat HPD1_PDL1 IC50, Jurkat-PD-1 cells, PE-labeled PD-L1-Ig 20 nM final
Outline: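 Read-out: high-content imaging of PE-tagged PD-L1-Ig bound to Jurkat cells overexpressing human PD-1, after fixation with 4% paraformaldehyde and Hoechst 33342 nuclear staining. Ligand was used at 20 nM final for 1 hour, after a 2 h compound exposure at 37° C in serum-containing DMEM.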

T1 sequence (Q15116 25-288): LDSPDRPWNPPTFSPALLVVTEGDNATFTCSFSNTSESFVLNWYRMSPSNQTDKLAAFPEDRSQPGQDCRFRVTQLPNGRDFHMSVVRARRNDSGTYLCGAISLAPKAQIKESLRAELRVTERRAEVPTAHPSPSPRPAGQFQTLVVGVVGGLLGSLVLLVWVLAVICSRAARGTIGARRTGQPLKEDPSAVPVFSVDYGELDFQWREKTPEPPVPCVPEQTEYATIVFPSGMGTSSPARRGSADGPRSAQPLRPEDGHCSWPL

Structure (SMILES)	IC50 [nM]
CC[C@H](C)[C@@H]1NC(=O)[C@H](Cc2ccc(-c3ccccc3)cc2)NC(=O)[C@H](C(C)C)NC(=O)[C@H](Cc2cccc(Cl)c2)NC(=O)[C@H](CC(=O)O)NC(=O)[C@H](Cc2ccc(C(=O)O)cc2)NC(=O)[C@H](Cc2ccncc2)NC(=O)CSC[C@@H](C(=O)N[C@@H](C)C(N)=O)NC(=O)[C@H]([C@@H](C)O)NC(=O)[C@H](C(C)C)NC(=O)[C@H](CC2CCCCC2)NC(=O)[C@H](CCN)NC(=O)[C@@H](CC(C)C)NC(=O)[C@H](CCCN)NC1=O [Compound 1558]	15.8

Same assay, conditions: Jurkat-PD-1 cells, PE-labeled PD-L1-Ig 20 nM final; read-out: Jurkat HPD1_PDL1 IC50

Structure (SMILES)	IC50 [nM]
CC(C)C[C@@H]1NC(=O)[C@H](Cc2c[nH]c3ccccc23)NC(=O)[C@H](CC(=O)O)NC(=O)[C@H](Cc2ccc(OCC(=O)O)cc2)NC(=O)[C@H](C(C)O)NC(=O)CSC[C@@H](C(=O)N[C@@H](CC(N)=O)C(N)=O)NC(=O)[C@H](CO)NC(=O)[C@H](C(C)C)NC(=O)[C@H](CC2CCCCC2)NC(=O)[C@H](CCN)NC(=O)[C@@H](CC(C)C)NC(=O)[C@H](CCCN)NC(=O)[C@H](C(C)O)NC(=O)[C@H](Cc2ccc(-c3ccccc3)cc2)NC1=O (stereo partly drawn) [Compound 2559] ({CH2CO}-[Thr(3ξ)]Y(Carboxymethyl)DWL[Bip][Thr(3ξ)][Orn][dL][Dab][Cha]VSCN-NH2; thioether N-14)	24.8
CC(C)C[C@H]1NC(=O)[C@H](CCCN)NC(=O)[C@H](CCC(=O)O)NC(=O)[C@H](Cc2ccc(-c3ccccc3)cc2)NC(=O)[C@H](C(C)C)NC(=O)[C@H](Cc2ccccc2F)NC(=O)[C@H](CC(=O)O)NC(=O)[C@H](Cc2ccc(C#N)cc2)NC(=O)[C@H](Cc2ccncc2)NC(=O)CSC[C@@H](C(=O)N[C@@H](C)C(N)=O)NC(=O)[C@H]([C@@H](C)O)NC(=O)[C@H](C(C)C)NC(=O)[C@H](CC2CCCCC2)NC(=O)[C@H](CCN)NC1=O [Compound 2216]	19.3
CC(C)C[C@@H]1NC(=O)[C@H](CCN)NC(=O)[C@@H](CC(C)C)NC(=O)[C@@H](CCCN)NC(=O)[C@H](C(C)C)NC(=O)[C@H](Cc2ccc(-c3ccccc3)cc2)NC(=O)[C@H](C(C)C)NC(=O)[C@H](Cc2c[nH]c3ccccc23)NC(=O)[C@H](CC(=O)O)NC(=O)[C@H](Cc2ccc(O)cc2)NC(=O)[C@H](CC(N)=O)NC(=O)CSC[C@@H](C(=O)N[C@@H](C)C(N)=O)NC(=O)[C@H]([C@@H](C)O)NC(=O)[C@H](C(C)C)NC1=O [Compound 1027] ({CH2CO}-NYDWV[Bip]V[dOrn][dL][Dab]LVTCA-NH2; thioether N-14)	19.5
CC(C)C[C@H]1NC(=O)[C@H](CCCN)NC(=O)[C@H](CCCNC(N)=O)NC(=O)[C@H](Cc2ccc(-c3ccccc3)cc2)NC(=O)[C@H](C(C)C)NC(=O)[C@H](Cc2c[nH]c3ccccc23)NC(=O)[C@H](CC(=O)O)NC(=O)[C@H](Cc2ccc(O)cc2)NC(=O)[C@H](CC(N)=O)NC(=O)CSC[C@@H](C(=O)N[C@@H](C)C(N)=O)NC(=O)[C@H]([C@@H](C)O)NC(=O)[C@H](C(C)C)NC(=O)[C@H](CC2CCCCC2)NC(=O)[C@H](CCCNC(=N)N)NC1=O [Compound 1155] ({CH2CO}-NYDWV[Bip][Cit][Orn][dL]R[Cha]VTCA-NH2; thioether N-14)	7.7
CC[C@H](C)[C@@H]1NC(=O)[C@H](Cc2ccc(-c3ccccc3)cc2)NC(=O)[C@H](C(C)C)NC(=O)[C@H](Cc2c[nH]c3ccccc23)NC(=O)[C@H](CC(=O)O)NC(=O)[C@H](Cc2ccc(O)cc2)NC(=O)[C@H](CN)NC(=O)CSC[C@@H](C(=O)N[C@@H](C)C(N)=O)NC(=O)[C@H]([C@@H](C)O)NC(=O)[C@H](C(C)C)NC(=O)[C@H](CC(C)C)NC(=O)[C@H](CCCNC(=N)N)NC(=O)[C@@H](CC(C)C)NC(=O)[C@H](CCCN)NC1=O [Compound 1141] ({CH2CO}-[Dap]YDWV[Bip]I[Orn][dL]RLVTCA-NH2; thioether N-14)	30.6
Cc1cccc(C[C@@H]2NC(=O)[C@H](CC(=O)O)NC(=O)[C@H](Cc3ccc(OCC(=O)O)cc3)NC(=O)[C@H](Cc3ccncc3)NC(=O)CSC[C@@H](C(=O)N[C@@H](CCN)C(N)=O)NC(=O)[C@H](CO)NC(=O)[C@H](C(C)(C)O)NC(=O)[C@H](CC3CCCCC3)NC(=O)[C@H](CCN)NC(=O)[C@@H](CC(C)C)NC(=O)[C@H](CCCN)NC(=O)[C@H](Cc3ccc(OCC(=O)O)cc3)NC(=O)[C@H](Cc3ccc(-c4ccccc4)cc3)NC(=O)[C@H](Cc3ccc(OCC(=O)O)cc3)NC2=O)c1 [Compound 2057] ({CH2CO}-[4Pal]Y(Carboxymethyl)D[Phe(3-Me)]Y(Carboxymethyl)[Bip]Y(Carboxymethyl)[Orn][dL][Dab][Cha][Val(3-OH)]SC[Dab]-NH2; thioether N-14)	3.6
CC(C)C[C@H]1NC(=O)[C@H](CCCN)NC(=O)[C@H](CCC(=O)O)NC(=O)[C@H](Cc2ccc(-c3ccccc3)cc2)NC(=O)[C@H](C(C)C)NC(=O)[C@H](Cc2c[nH]c3ccccc23)NC(=O)[C@H](CC(=O)O)NC(=O)[C@H](Cc2ccc(OCC(=O)O)cc2)NC(=O)[C@H](CN)NC(=O)CSC[C@@H](C(=O)N[C@@H](C)C(N)=O)NC(=O)[C@H]([C@@H](C)O)NC(=O)[C@H](C(C)C)NC(=O)[C@H](Cc2cccc(Cl)c2)NC(=O)[C@H](CCN)NC1=O [Compound 1506] ({CH2CO}-[Dap]Y(Carboxymethyl)DWV[Bip]E[Orn][dL][Dab][Phe(3-Cl)]VTCA-NH2; thioether N-14)	56.7
Cc1cccc(C[C@@H]2NC(=O)[C@H](CC(=O)O)NC(=O)[C@H](Cc3ccc(OCC(=O)O)cc3)NC(=O)[C@H](CCCNC(=N)N)NC(=O)CSC[C@@H](C(=O)N[C@@H](CO)C(N)=O)NC(=O)[C@H](CO)NC(=O)[C@H](C(C)C)NC(=O)[C@H](CC3CCCCC3)NC(=O)[C@H](CCCNC(=N)N)NC(=O)[C@@H](CC(C)C)NC(=O)[C@H](CCCN)NC(=O)[C@H](CCCNC(N)=O)NC(=O)[C@H](Cc3ccc(-c4ccccc4)cc3)NC(=O)[C@H](C(C)C)NC2=O)c1 [Compound 2597] ({CH2CO}-RY(Carboxymethyl)D[Phe(3-Me)]V[Bip][Cit][Orn][dL]R[Cha]VSCS-NH2; thioether N-14)	12.9
COc1cccc(C[C@@H]2NC(=O)[C@H](CC(=O)O)NC(=O)[C@H](Cc3ccncc3)NC(=O)[C@H](CN)NC(=O)CSC[C@@H](C(=O)N[C@@H](C)C(N)=O)NC(=O)[C@H]([C@@H](C)O)NC(=O)[C@H](C(C)C)NC(=O)[C@H](CC3CCCCC3)NC(=O)[C@H](CCN)NC(=O)[C@@H](CC(C)C)NC(=O)[C@H](CCCN)NC(=O)[C@H](CCC(=O)O)NC(=O)[C@H](Cc3ccc(-c4ccccc4)cc3)NC(=O)[C@H](C(C)C)NC2=O)c1 [Compound 1546] ({CH2CO}-[Dap][4Pal]D[Phe(3-OMe)]V[Bip]E[Orn][dL][Dab][Cha]VTCA-NH2; thioether N-14)	9
CCC(C)[C@@H]1NC(=O)[C@H](Cc2ccc(-c3ccccc3)cc2)NC(=O)[C@H](C(C)C)NC(=O)[C@H](Cc2cccc(C)c2)NC(=O)[C@H](CC(=O)O)NC(=O)[C@H](Cc2ccc(OCC(=O)O)cc2)NC(=O)[C@H](Cc2ccncc2)NC(=O)CSC[C@@H](C(=O)N[C@@H](C)C(N)=O)NC(=O)[C@H](CO)NC(=O)[C@H](C(C)C)NC(=O)[C@H](CC2CCCCC2)NC(=O)[C@H](CCN)NC(=O)[C@@H](CC(C)C)NC(=O)[C@H](CCCN)NC1=O (stereo partly drawn) [Compound 2535]	38
CC[C@H](C)[C@@H]1NC(=O)[C@H](Cc2ccc(-c3ccccc3)cc2)NC(=O)[C@H](C(C)C)NC(=O)[C@H](Cc2c[nH]c3ccccc23)NC(=O)[C@H](CC(=O)O)NC(=O)[C@H](Cc2ccc(O)cc2)NC(=O)[C@H](CC(N)=O)NC(=O)CSC[C@@H](C(=O)N[C@@H](C)C(N)=O)NC(=O)[C@H]([C@@H](C)O)NC(=O)[C@H](C(C)C)NC(=O)[C@H](CC(C)C)NC(=O)[C@H](CCCCN)NC(=O)[C@@H](CC(C)C)NC(=O)[C@H](CCCN)NC1=O [Compound 1129] ({CH2CO}-NYDWV[Bip]I[Orn][dL]KLVTCA-NH2; thioether N-14)	19.7
CC(C)C[C@H]1NC(=O)[C@H](CCCN)NC(=O)[C@H](CCCNC(N)=O)NC(=O)[C@H](Cc2ccc(-c3ccccc3)cc2)NC(=O)[C@H](C(C)C)NC(=O)[C@H](Cc2c[nH]c3ccccc23)NC(=O)[C@H](CC(=O)O)NC(=O)[C@H](Cc2ccncc2)NC(=O)[C@H](Cc2ccc(OCC(=O)O)cc2)NC(=O)CSC[C@@H](C(=O)N[C@@H](C)C(N)=O)NC(=O)[C@H]([C@@H](C)O)NC(=O)[C@H](C(C)C)NC(=O)[C@H](CC2CCCCC2)NC(=O)[C@H](CCN)NC1=O [Compound 1326]	12.1
CC(C)C[C@H]1NC(=O)[C@H](CCCN)NC(=O)[C@H](C(C)C)NC(=O)[C@H](Cc2ccc(-c3ccccc3)cc2)NC(=O)[C@H](C(C)C)NC(=O)[C@H](Cc2c[nH]c3ccccc23)NC(=O)[C@H](CC(=O)O)NC(=O)[C@H](Cc2ccc(C(=O)O)cc2)NC(=O)[C@H](Cc2ccc(OCC(=O)O)cc2)NC(=O)CSC[C@@H](C(=O)N[C@@H](C)C(N)=O)NC(=O)[C@H](CN)NC(=O)[C@H](C(C)C)NC(=O)[C@H](CC2CCCCC2)NC(=O)[C@H](CCN)NC1=O [Compound 1739] ({CH2CO}-Y(Carboxymethyl)[Phe(4-COOH)]DWV[Bip]V[Orn][dL][Dab][Cha]V[Dap]CA-NH2; thioether N-14)	9.9
CC(C)C[C@@H]1NC(=O)[C@H](CCN)NC(=O)[C@@H](CC(C)C)NC(=O)[C@H](CCCCN)NC(=O)[C@H](C(C)C)NC(=O)[C@H](Cc2ccc(-c3ccccc3)cc2)NC(=O)[C@H](C(C)C)NC(=O)[C@H](Cc2c[nH]c3ccccc23)NC(=O)[C@H](CC(N)=O)NC(=O)[C@H](Cc2ccc(O)cc2)NC(=O)[C@H](CC(N)=O)NC(=O)CSC[C@@H](C(=O)NCC(N)=O)NC(=O)[C@H]([C@@H](C)O)NC(=O)[C@H](C(C)C)NC1=O [Compound 1085] ({CH2CO}-NYNWV[Bip]VK[dL][Dab]LVTCG-NH2; thioether N-14)	22.3

Reference: patent US20250163104A1, “MACROCYCLIC IMMUNOMODULATORS” (priority 2021, published 2025)
